Reference: BigSolDB 2.1

Cn1[nH]c(=O)c(=O)[nH]c1=S
Conditions | solubility (mole fraction)
in acetone, 293.25 K | 0.015
in acetone, 298.25 K | 0.0155
in acetone, 303.09 K | 0.016
in acetone, 308.05 K | 0.0168
in acetone, 312.79 K | 0.0178
in acetone, 318.03 K | 0.0186
in acetone, 323.07 K | 0.0199
in acetone, 327.37 K | 0.0209
in acetonitrile, 293.21 K | 0.00221
in acetonitrile, 298.23 K | 0.00248
in acetonitrile, 303.15 K | 0.00268
in acetonitrile, 308.11 K | 0.00299
in acetonitrile, 313.07 K | 0.00333
in acetonitrile, 317.95 K | 0.00375
in acetonitrile, 323.11 K | 0.0042
in acetonitrile, 328.13 K | 0.00463
in acetonitrile, 333.23 K | 0.00521
in acetonitrile, 338.17 K | 0.00585
in acetonitrile, 342.75 K | 0.00654
in ethanol, 293.23 K | 0.0125
in ethanol, 298.35 K | 0.014
in ethanol, 303.33 K | 0.0152
in ethanol, 308.29 K | 0.0169
in ethanol, 313.47 K | 0.0186
in ethanol, 318.47 K | 0.0205
in ethanol, 323.41 K | 0.0228
in ethanol, 328.23 K | 0.0255
in ethanol, 333.53 K | 0.0278
in ethanol, 338.63 K | 0.0307
in ethanol, 343.33 K | 0.0345
in ethyl acetate, 293.07 K | 0.00574
in ethyl acetate, 298.49 K | 0.00617
in ethyl acetate, 303.41 K | 0.00643
in ethyl acetate, 308.49 K | 0.00697
in ethyl acetate, 313.53 K | 0.00747
in ethyl acetate, 318.67 K | 0.00799
in ethyl acetate, 323.49 K | 0.0086
in ethyl acetate, 328.61 K | 0.00918
in ethyl acetate, 333.53 K | 0.00985
in ethyl acetate, 338.23 K | 0.0104
in ethyl acetate, 343.33 K | 0.0111
in isopropanol, 293.11 K | 0.00556
in isopropanol, 298.21 K | 0.00663
in isopropanol, 303.13 K | 0.00782
in isopropanol, 308.11 K | 0.00915
in isopropanol, 312.87 K | 0.0107
in isopropanol, 317.83 K | 0.0124
in isopropanol, 323.07 K | 0.0142
in isopropanol, 328.13 K | 0.0164
in isopropanol, 333.09 K | 0.0187
in isopropanol, 337.75 K | 0.0217
in isopropanol, 342.67 K | 0.0248
in n-butanol, 293.11 K | 0.00872
in n-butanol, 298.23 K | 0.00964
in n-butanol, 302.99 K | 0.0109
in n-butanol, 308.11 K | 0.0124
in n-butanol, 313.13 K | 0.0141
in n-butanol, 318.05 K | 0.0159
in n-butanol, 322.89 K | 0.0178
in n-butanol, 328.13 K | 0.02
in n-butanol, 333.39 K | 0.0224
in n-butanol, 338.07 K | 0.0255
in n-butanol, 343.23 K | 0.0288
in n-propanol, 292.99 K | 0.00859
in n-propanol, 298.33 K | 0.00959
in n-propanol, 303.23 K | 0.0108
in n-propanol, 308.23 K | 0.0122
in n-propanol, 313.15 K | 0.0139
in n-propanol, 318.23 K | 0.0157
in n-propanol, 323.23 K | 0.0176
in n-propanol, 328.47 K | 0.0198
in n-propanol, 333.07 K | 0.0223
in n-propanol, 338.33 K | 0.0251
in n-propanol, 343.35 K | 0.0286
in water, 293.23 K | 0.00139
in water, 298.15 K | 0.00158
in water, 302.93 K | 0.00187
in water, 312.93 K | 0.00263
in water, 317.65 K | 0.00306
in water, 322.85 K | 0.00366
in water, 327.77 K | 0.00438
in water, 332.83 K | 0.00522
in water, 337.35 K | 0.00623
in water, 342.47 K | 0.00748
